{
  "source": "patent US8105980B1",
  "about": "“Method of increasing the content of flavonoids and phenolic substances substances inplants” (Basf Aktiengesellschaft, priority 1999, dated 2012)",
  "key": {"apple tissue cultures": {"test_system": "apple tissue cultures", "settings": "cited from earlier work"}, "Vines cv. “Dornfelder”": {"test_system": "Vines cv. “Dornfelder”", "experiment": "Treatment of Dornfelder vines: ripeness, acid, pigmentation and taste of harvested grapes", "format": "in vivo, grapevine", "method": "Vines cv. “Dornfelder” were treated twice at different points in time with the formulation BAS 125 10W, which contains prohexadione-calcium. 1000 g of prohexadione-calcium in 1000 l of spray mixture were applied per ha per treatment.\nThe 1st application was carried out at developmental stage 73 before the berries developed their color, and the 2nd application 10 days thereafter.\nUntreated control: 69° Oechsle, acid: 7.3 g/l; treated control: 67° Oechsle, acid: 7.4 g/l."}, "[1]": {"test_system": "Apple plants cv. “Weirouge”", "experiment": "Eriodictyol and luteoliflavan content in young apple leaves after treatment (HPLC)", "format": "in vivo", "settings": "for Eriodictyol / Luteoliflavan: 250 ppm to runoff, youngest fully developed leaf", "method": "Apple plants cv. “Weirouge” were grown under controlled-environment conditions and treated to runoff point with 250 ppm prohexadione-calcium (formulated as BAS 125 10 W=wettable granules, content 10%). At various points in time after the treatment, the youngest fully developed leaf was harvested from each individual shoot. The freeze-dried leaves which had been ground using a pestle and mortar were extracted with methanol. Flavonoids and related compounds in the concentrated extract were analyzed by HPLC. Separation was performed on Hypersil ODS (particle size 3 μm) on a 250×4 mm column. Elution was carried out at a flow rate of 0.5 ml per minute, and mixtures of formic acid (5% in water) and methanol, increased stepwise from a ratio of 95:5 to 10:90 (v/v) were used. Phenolic acids and flavonols were detected at 280 nm. Flavan-3-ols were determined by post-column derivatization with p-dimethylaminocinnamaldehyde at 640 nm. For methodological details, see Treutter et al. (1994), Journal of Chromatography A 667, 290-297."}, "shoot tissue of apples": {"test_system": "shoot tissue of apples", "settings": "shoot tissue of apples after exposure; cited from earlier work"}, "[2]": {"settings": "two applications of 1000 g/ha in 1000 l spray mixture (BAS 125 10W), at harvest"}},
  "data": [
    {"substance": "prohexadione-calcium", "values": [
      {"measurement": "content of phenolic substances", "setting": "apple tissue cultures", "result": "increased several times"},
      {"measurement": "pigmentation of treated grapes", "setting": "Vines cv. “Dornfelder”; compared with untreated grapes", "result": "less pronounced"},
      {"measurement": "taste of treated grapes", "setting": "Vines cv. “Dornfelder”; compared with untreated grapes", "result": "no difference was observed"},
      {"measurement": "acid of harvested grapes", "setting": "Vines cv. “Dornfelder”; [2]", "result": 7.4, "unit": "g/L"},
      {"measurement": "degree of ripeness of harvested grapes", "setting": "Vines cv. “Dornfelder”; [2]", "result": 67, "unit": "° Oechsle"},
      {"measurement": "Eriodictyol", "setting": "[1]; 12 days after treatment", "result": 17, "unit": "g/kg dry matter"},
      {"measurement": "Luteoliflavan", "setting": "[1]; 12 days after treatment", "result": 0, "unit": "g/kg dry matter"},
      {"measurement": "Eriodictyol", "setting": "[1]; 21 days after treatment", "result": 27, "unit": "g/kg dry matter"},
      {"measurement": "Luteoliflavan", "setting": "[1]; 21 days after treatment", "result": 34, "unit": "g/kg dry matter"},
      {"measurement": "eriodictyol concentration in treated leaves", "setting": "[1]; after 12 and 21 days", "result": "markedly increased"},
      {"measurement": "catechin and cyanidin in treated tissue", "setting": "shoot tissue of apples", "result": "not detectable in the treated tissue, or found in considerably reduced amounts only"},
      {"measurement": "luteoliflavan and eriodictyol amounts", "setting": "shoot tissue of apples", "result": "relatively large amounts"}
    ]}
  ]
}
